Measurements published in publication PMC6554663, “Pharmaceutical Effects of Inhibiting the Soluble Epoxide Hydrolase in Canine Osteoarthritis” (Frontiers in Pharmacology, 2019).
pIC50: −log10 of the molar value. Entries after “also recorded” stand apart in the source; their conditions may differ.

Columns and labels:
aged beagle dogs with OA = test: Pain and function assessment (modified CBPI questionnaire) in arthritic dogs; assay type: in vivo, dog
Description: The study was conducted as a blinded, parallel matched-group design. Dogs were randomized into groups based on pretreatment pain scores and each group was randomly assigned a treatment. Prior to randomization, each dog was assessed for arthritis by radiograph to assess the severity of OA by presence of osteophytes, subchondral sclerosis or joint effusion each scored on a scale of 0 (least) to 3 (worst) for each of 12 joints. Severity of the radiograph score was included in the randomization protocol and distributed between the groups, and there were no statistical differences between the averages of each group. Individual radiograph scores can be found in Supplementary Table S2. […] Compounds were dissolved in PEG300 to a concentration of 2.4 mg/mL (1 mg/kg) and 12 mg/mL (5 mg/kg) and administered as approximately 5 mL in size 12 gelatin capsules (Torpac) administered once daily on days 1 through 5. Vehicle group consisted of 5 mL PEG300 in capsule. Concurrent medications were not allowed and not needed during the study.
Pain and function were assessed by a questionnaire answered by blinded technicians based on observation of study animals housed at InterVivo. The survey was adapted from the canine brief pain inventory (CBPI), which was developed based on clinical questionnaires in which owners score the function and pain level of their pets with existing pain conditions ([Brown et al., 2007]). Modifications to the questionnaire attempted to account for differences between owner pain evaluation of pets and pain evaluation of laboratory dogs by technical staff. For survey administration, blinded technicians attempted to elicit objective behavior-specific measures of function and pain level across a variety of normal canine behaviors (e.g., walking, trotting, galloping, rearing, and stair-climbing, etc.). For this, one technician was responsible for soliciting the relevant behaviors from a dog using encouragement and/or food rewards, while the evaluating technician scored function and observable pain using the modified CBPI questionnaire. Subjects were tested daily on Days -7 through -3, to develop baseline scores, and again on Days 1 through 5 administered 1.5 h after dosing. Dosing occurred in the morning, and observations were recorded 1.5 h after dosing, to limit time-of-day variability. Questions are listed in Supplementary Table S3. […]
Canine pain and function data were analyzed using ANOVA, linear mixed effects model, with Tukey adjustment in R and repeated measures ANOVA. Correlations coefficients were calculated in Graphpad Prism using the non-parametric Spearman correlation coefficient. In vitro experiments were analyzed using ANOVA in Graphpad Prism. […]

Canine sEH = target: T1, Canine sEH (Canis lupus familiaris, UniProt A0A8I3NJL8); test: Canine sEH inhibition IC50; assay type: biochemical; conditions: canine enzyme partially purified from liver cytosol
T1 construct: canine enzyme was partially purified on a Q-sepharose column from liver cytosol; from tissue; host or cells: dog liver cytosol, about 10-fold purification on Q-sepharose
T1 sequence (A0A8I3NJL8 1-556): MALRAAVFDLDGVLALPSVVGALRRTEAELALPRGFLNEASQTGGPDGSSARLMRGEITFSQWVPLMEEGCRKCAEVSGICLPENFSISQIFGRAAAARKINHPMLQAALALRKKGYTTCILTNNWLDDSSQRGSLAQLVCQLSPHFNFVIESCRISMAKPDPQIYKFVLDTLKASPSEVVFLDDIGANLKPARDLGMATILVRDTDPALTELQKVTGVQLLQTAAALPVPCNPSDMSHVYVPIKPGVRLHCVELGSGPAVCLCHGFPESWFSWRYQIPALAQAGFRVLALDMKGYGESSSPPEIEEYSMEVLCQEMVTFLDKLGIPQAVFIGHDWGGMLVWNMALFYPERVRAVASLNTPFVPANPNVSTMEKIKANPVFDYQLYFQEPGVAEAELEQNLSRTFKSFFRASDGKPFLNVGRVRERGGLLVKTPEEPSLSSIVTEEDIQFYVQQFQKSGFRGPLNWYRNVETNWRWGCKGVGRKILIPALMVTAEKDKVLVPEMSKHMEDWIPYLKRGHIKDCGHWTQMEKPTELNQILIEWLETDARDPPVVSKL

Structure (SMILES) | function scores compared to the other groups (trend) (aged beagle dogs with OA; 5 mg/kg oral once daily) | pain compared to placebo / vehicle control (aged beagle dogs with OA; 5 mg/kg oral once daily for 5 days, p < 0.05) | increase in function (aged beagle dogs with OA; 5 mg/kg oral once daily, after 5-days of dosing) [%] | reduction in pain compared to predose values (maximum effect) (aged beagle dogs with OA; 5 mg/kg oral once daily, day 4, average) [%] | pIC50 (Canine sEH)
O=C(Nc1ccc(OC(F)(F)F)cc1)N[C@H]1CC[C@H](Oc2ccc(C(=O)O)cc2)CC1 [EC1728, trans-4-{4-[3-(4-trifluoromethoxy-phenyl)-ureido]-cyclohexyloxy}-benzoic acid] | tended to have increased function scores | significantly reduced pain; also recorded: significantly less pain | 16 | 44 | –
CN(C(=O)N[C@H]1CC[C@H](Oc2ccc(C(=O)O)cc2)CC1)c1ccc(OC(F)(F)F)cc1 [EC3039, trans-4-{4-[3-methyl-3-(4-trifluoromethoxy-phenyl)-ureido]-cyclohexyloxy}-benzoic acid] | – | – | – | – | 8.35
